{"source": "EPA's ToxRefDB 2", "key": {"rat [1]": {"test_system": "rat", "settings": "Prenatal developmental toxicity study; other; Oral; Gavage/Intubation; dose end: 19 GD; group: developmental; developmental / developmental malformation / ureter / hydroureter"}, "rat [2]": {"test_system": "rat", "settings": "Prenatal developmental toxicity study, Osborne-Mendel, Oral, Water, dose end: 20 GD"}, "rat [3]": {"test_system": "rat", "settings": "Combined chronic toxicity/carcinogenicity; sprague dawley; Oral; Feed; dose end: 118 week; group: systemic; systemic / in life observation / clinical signs / feces, discoloration"}, "mouse [4]": {"test_system": "mouse", "settings": "Multigenerational reproductive toxicity study; cd1; Oral; Feed; dose end: 1 generation; group: parental; systemic / in life observation / food consumption / food consumption"}, "mouse [5]": {"test_system": "mouse", "settings": "Combined chronic toxicity/carcinogenicity, cd1, Oral, Feed, dose end: 104 week, group: systemic"}, "rat [6]": {"test_system": "rat", "settings": "Multigenerational reproductive toxicity study, sprague dawley, Oral, Feed, dose end: 1 generation"}, "dog": {"test_system": "dog", "settings": "Chronic toxicity, beagle, Oral, Feed, dose end: 52 week"}, "mouse [7]": {"test_system": "mouse", "settings": "Combined chronic toxicity/carcinogenicity; cd1; Oral; Feed; dose end: 95 week; group: systemic; systemic / in life observation / body weight / body weight gain"}, "rat [8]": {"test_system": "rat", "settings": "Combined chronic toxicity/carcinogenicity, sprague dawley, Oral, Feed, dose end: 2 year"}, "rabbit": {"test_system": "rabbit", "settings": "Prenatal developmental toxicity study, new zealand white, Oral, Gavage/Intubation, dose end: 19 GD"}, "[9]": {"settings": "group: developmental, developmental / developmental malformation / bone / bipartite ossification + developmental / developmental malformation / bone / incomplete …"}, "[10]": {"settings": "group: maternal, systemic / in life observation / water consumption / water consumption + reproductive / reproductive performance / reproductive performance …"}, "[11]": {"settings": "systemic / organ weight / thyroid gland / absolute + systemic / organ weight / thyroid gland / relative to body weight"}, "[12]": {"settings": "group: offspring, developmental / developmental landmark / vaginal opening / vaginal opening + systemic / in life observation / clinical signs / nocturnal …"}, "[13]": {"settings": "group: offspring, developmental / offspring survival late / [other] / [other] + developmental / developmental landmark / vaginal opening / vaginal opening + …"}, "[14]": {"settings": "group: parental, systemic / in life observation / body weight / body weight"}, "[15]": {"settings": "group: reproductive, reproductive / reproductive performance / pregnancy / pregnancy"}, "[16]": {"settings": "group: cholinesterase, cholinesterase / cholinesterase / cholinesterase / cholinesterase (che) + cholinesterase / cholinesterase / cholinesterase / plasma …"}, "[17]": {"settings": "group: systemic, systemic / in life observation / clinical signs / [other] + systemic / in life observation / clinical signs / labored respiration + systemic…"}, "[18]": {"settings": "group: cholinesterase, cholinesterase / cholinesterase / cholinesterase / brain cholinesterase (che)"}, "[19]": {"settings": "group: cholinesterase, cholinesterase / cholinesterase / cholinesterase / brain cholinesterase (che) + cholinesterase / cholinesterase / cholinesterase / plasma …"}, "[20]": {"settings": "group: systemic, systemic / in life observation / body weight / body weight + systemic / in life observation / body weight / body weight gain"}, "[21]": {"settings": "group: developmental, developmental / developmental landmark / incisor eruption / incisor eruption + developmental / developmental malformation / bone / absent + …"}, "[22]": {"settings": "group: maternal, systemic / in life observation / body weight / body weight gain + systemic / in life observation / food consumption / food efficiency"}, "[23]": {"settings": "group: maternal, systemic / in life observation / body weight / body weight gain + systemic / in life observation / food consumption / food efficiency + …"}}, "data": [{"smiles": "COc1cc(S(=O)(=O)[O-])c(C)cc1N=Nc1c(O)ccc2cc(S(=O)(=O)[O-])ccc12.[Na+].[Na+]", "values": [{"measurement": "LEL", "setting": "rat [1]", "value": 200, "unit": "mg/kg/day"}, {"measurement": "LOAEL", "setting": "rat [1]", "value": "> 200", "unit": "mg/kg/day"}, {"measurement": "NEL", "setting": "rat [1]", "value": 100, "unit": "mg/kg/day"}, {"measurement": "NOAEL", "setting": "rat [1]", "value": "≥ 200", "unit": "mg/kg/day"}, {"measurement": "LEL", "setting": "rat [2]; [9]", "value": 260, "unit": "mg/kg/day"}, {"measurement": "LOAEL", "setting": "rat [2]; [9]", "value": "> 260", "unit": "mg/kg/day"}, {"measurement": "NEL", "setting": "rat [2]; [9]", "value": "< 260", "unit": "mg/kg/day"}, {"measurement": "NOAEL", "setting": "rat [2]; [9]", "value": "≥ 260", "unit": "mg/kg/day"}, {"measurement": "LEL", "setting": "rat [2]; [10]", "value": 260, "unit": "mg/kg/day"}, {"measurement": "LOAEL", "setting": "rat [2]; [10]", "value": "> 260", "unit": "mg/kg/day"}, {"measurement": "NEL", "setting": "rat [2]; [10]", "value": "< 260", "unit": "mg/kg/day"}, {"measurement": "NOAEL", "setting": "rat [2]; [10]", "value": "≥ 260", "unit": "mg/kg/day"}, {"measurement": "LEL", "setting": "rat [3]", "value": 701, "unit": "mg/kg/day"}, {"measurement": "LOAEL", "setting": "rat [3]", "value": "> 2830", "unit": "mg/kg/day"}, {"measurement": "NEL", "setting": "rat [3]", "value": 180, "unit": "mg/kg/day"}, {"measurement": "NOAEL", "setting": "rat [3]", "value": "≥ 2830", "unit": "mg/kg/day"}, {"measurement": "LEL", "setting": "mouse [4]", "value": 2930, "unit": "mg/kg/day"}, {"measurement": "LOAEL", "setting": "mouse [4]", "value": "> 2930", "unit": "mg/kg/day"}, {"measurement": "NEL", "setting": "mouse [4]", "value": 1420, "unit": "mg/kg/day"}, {"measurement": "NOAEL", "setting": "mouse [4]", "value": "≥ 2930", "unit": "mg/kg/day"}, {"measurement": "LEL", "setting": "mouse [5]; systemic / in life observation / food consumption / food consumption", "value": 1880, "unit": "mg/kg/day"}, {"measurement": "NEL", "setting": "mouse [5]; systemic / in life observation / food consumption / food consumption + systemic / pathology microscopic / lymph node / lymphoma nos", "value": 507, "unit": "mg/kg/day"}, {"measurement": "LOAEL", "setting": "mouse [5]; [11]", "value": "> 7320", "unit": "mg/kg/day"}, {"measurement": "NOAEL", "setting": "mouse [5]; [11]", "value": "≥ 7320", "unit": "mg/kg/day"}, {"measurement": "LEL", "setting": "rat [6]; [12]", "value": 1250, "unit": "mg/kg/day"}, {"measurement": "NEL", "setting": "rat [6]; [12]", "value": "< 1250", "unit": "mg/kg/day"}, {"measurement": "LOAEL", "setting": "rat [6]; [13]", "value": "> 5000", "unit": "mg/kg/day"}, {"measurement": "NOAEL", "setting": "rat [6]; [13]", "value": "≥ 5000", "unit": "mg/kg/day"}, {"measurement": "LEL", "setting": "rat [6]; [14]", "value": 1250, "unit": "mg/kg/day"}, {"measurement": "LOAEL", "setting": "rat [6]; [14]", "value": "> 5000", "unit": "mg/kg/day"}, {"measurement": "NEL", "setting": "rat [6]; [14]", "value": "< 1250", "unit": "mg/kg/day"}, {"measurement": "NOAEL", "setting": "rat [6]; [14]", "value": "≥ 5000", "unit": "mg/kg/day"}, {"measurement": "LEL", "setting": "rat [6]; [15]", "value": 1250, "unit": "mg/kg/day"}, {"measurement": "LOAEL", "setting": "rat [6]; [15]", "value": "> 5000", "unit": "mg/kg/day"}, {"measurement": "NEL", "setting": "rat [6]; [15]", "value": "< 1250", "unit": "mg/kg/day"}, {"measurement": "NOAEL", "setting": "rat [6]; [15]", "value": "≥ 5000", "unit": "mg/kg/day"}]}, {"smiles": "CNC(=O)Oc1cccc(N=CN(C)C)c1.Cl", "note": "[Formetanate hydrochloride]", "values": [{"measurement": "LEL", "setting": "dog; [16]", "value": 1.74, "unit": "mg/kg/day"}, {"measurement": "LOAEL", "setting": "dog; [16]", "value": 1.74, "unit": "mg/kg/day"}, {"measurement": "NEL", "setting": "dog; [16]", "value": 0.37, "unit": "mg/kg/day"}, {"measurement": "NOAEL", "setting": "dog; [16]", "value": 0.37, "unit": "mg/kg/day"}, {"measurement": "LEL", "setting": "dog; [17]", "value": 1.74, "unit": "mg/kg/day"}, {"measurement": "LOAEL", "setting": "dog; [17]", "value": 1.74, "unit": "mg/kg/day"}, {"measurement": "NEL", "setting": "dog; [17]", "value": 0.37, "unit": "mg/kg/day"}, {"measurement": "NOAEL", "setting": "dog; [17]", "value": 0.37, "unit": "mg/kg/day"}, {"measurement": "LEL", "setting": "mouse [7]", "value": 70, "unit": "mg/kg/day"}, {"measurement": "LOAEL", "setting": "mouse [7]", "value": 70, "unit": "mg/kg/day"}, {"measurement": "NEL", "setting": "mouse [7]", "value": 7, "unit": "mg/kg/day"}, {"measurement": "NOAEL", "setting": "mouse [7]", "value": 7, "unit": "mg/kg/day"}, {"measurement": "LEL", "setting": "rat [8]; [18]", "value": 0.45, "unit": "mg/kg/day"}, {"measurement": "NEL", "setting": "rat [8]; [18]", "value": "< 0.45", "unit": "mg/kg/day"}, {"measurement": "LOAEL", "setting": "rat [8]; [19]", "value": "> 12", "unit": "mg/kg/day"}, {"measurement": "NOAEL", "setting": "rat [8]; [19]", "value": "≥ 12", "unit": "mg/kg/day"}, {"measurement": "LOAEL", "setting": "rat [8]; group: systemic, systemic / in life observation / body weight / body weight", "value": 12, "unit": "mg/kg/day"}, {"measurement": "LEL", "setting": "rat [8]; [20]", "value": 12, "unit": "mg/kg/day"}, {"measurement": "NEL", "setting": "rat [8]; [20]", "value": 2.3, "unit": "mg/kg/day"}, {"measurement": "NOAEL", "setting": "rat [8]; [20]", "value": 2.3, "unit": "mg/kg/day"}, {"measurement": "LEL", "setting": "rabbit; [21]", "value": 15, "unit": "mg/kg/day"}, {"measurement": "LOAEL", "setting": "rabbit; [21]", "value": 15, "unit": "mg/kg/day"}, {"measurement": "NEL", "setting": "rabbit; [21]", "value": 5, "unit": "mg/kg/day"}, {"measurement": "NOAEL", "setting": "rabbit; [21]", "value": 5, "unit": "mg/kg/day"}, {"measurement": "LEL", "setting": "rabbit; [22]", "value": 15, "unit": "mg/kg/day"}, {"measurement": "LOAEL", "setting": "rabbit; [22]", "value": 15, "unit": "mg/kg/day"}, {"measurement": "NEL", "setting": "rabbit; [23]", "value": 5, "unit": "mg/kg/day"}, {"measurement": "NOAEL", "setting": "rabbit; [23]", "value": 5, "unit": "mg/kg/day"}]}]}
